Assay results reported in EPA's ToxRefDB 2.

How the values were obtained:
rat [1] = details: Multigenerational reproductive toxicity study; sprague dawley; Oral; Gavage/Intubation; dose end: 17 GD; group: parental; systemic / in life observation / body weight / body weight + systemic / in life observation / food consumption / food consumption + systemic…
rat [2] = details: Sub-acute repeat dose toxicity, sprague dawley, Oral, Gavage/Intubation, dose end: 1 month, group: systemic
rat [3] = details: Prenatal developmental toxicity study, other, Oral, Gavage/Intubation, dose end: 15 GD
rat [4] = details: Subchronic oral toxicity in rodents, sprague dawley, Feed, dose end: 13 week, group: systemic
rat [5] = details: Combined chronic toxicity/carcinogenicity, sprague dawley, Oral, Feed, dose end: 25 month, group: systemic
mouse = details: Carcinogenicity, cd1, Oral, [Not Specified], dose end: 99 week, group: systemic
rat [6] = details: Subchronic oral toxicity in rodents, wistar, Feed, dose end: 6 week, group: systemic
[7] = systemic / clinical chemistry / cholesterol / cholesterol + systemic / organ weight / liver / absolute + systemic / organ weight / liver / …
[8] = systemic / pathology microscopic / liver / arteritis + systemic / pathology microscopic / liver / degeneration
[9] = group: developmental, developmental / developmental malformation / eye / anophthalmia + developmental / developmental malformation / eye / microphthalmia
[10] = group: maternal, systemic / in life observation / body weight / body weight gain
[11] = systemic / clinical chemistry / albumin / albumin + systemic / clinical chemistry / protein / protein
[12] = systemic / clinical chemistry / cholesterol / cholesterol + systemic / in life observation / body weight / body weight + systemic / in life …
[13] = systemic / clinical chemistry / alanine aminotransferase (alt/sgpt) / alanine aminotransferase (alt/sgpt) + systemic / clinical chemistry / …
[14] = systemic / pathology microscopic / liver / hypertrophy
[15] = systemic / in life observation / body weight / body weight gain + systemic / in life observation / mortality / mortality + systemic / organ …
[16] = systemic / in life observation / body weight / body weight gain + systemic / clinical chemistry / protein / protein + systemic / clinical …

Q: What does the source list for `NC(=O)N(O)[C@@H]1COc2cc(OCc3ccccc3)ccc21`?
A: LEL (rat [1]): 1000 mg/kg/day; LOAEL (rat [1]): > 1000 mg/kg/day; NEL (rat [1]): 100 mg/kg/day; NOAEL (rat [1]): ≥ 1000 mg/kg/day; LOAEL (rat [2]; [7]): > 1000 mg/kg/day; NOAEL (rat [2]; [7]): ≥ 1000 mg/kg/day; LEL (rat [2]; [8]): 100 mg/kg/day; NEL (rat [2]; [8]): < 100 mg/kg/day

Q: `CCCN(CCC)c1c([N+](=O)[O-])cc(C(F)(F)F)c(N)c1[N+](=O)[O-]` [Prodiamine] was tested. Which LEL (rat [3]; [9]) did it give?
A: Its LEL is 100 mg/kg/day.

Q: And the LOAEL (rat [3]; [9])?
A: The LOAEL was 100 mg/kg/day.

Q: What about the NEL (rat [3]; [9]) of the same compound?
A: The NEL was under 100 mg/kg/day.

Q: And the NOAEL (rat [3]; [9])?
A: The NOAEL was under 100 mg/kg/day.

Q: What about the LEL (rat [3]; [10]) of the same compound?
A: Its LEL is 1000 mg/kg/day.

Q: What about the LOAEL (rat [3]; [10]) of the same compound?
A: Its LOAEL is 1000 mg/kg/day.

Q: What about the NEL (rat [3]; [10]) of the same compound?
A: The NEL was 300 mg/kg/day.

Q: And the NOAEL (rat [3]; [10])?
A: Its NOAEL is 300 mg/kg/day.

Q: What about the LEL (rat [4]; [11]) of the same compound?
A: The LEL was 26.7 mg/kg/day.

Q: And the NEL (rat [4]; [11])?
A: Its NEL is under 26.7 mg/kg/day.

Q: And the LOAEL (rat [4]; [12])?
A: Its LOAEL is 269 mg/kg/day.

Q: What about the NOAEL (rat [4]; [12]) of the same compound?
A: Its NOAEL is 80.1 mg/kg/day.

Q: And the LOAEL (rat [5]; [13])?
A: The LOAEL was 37 mg/kg/day.

Q: What about the NOAEL (rat [5]; [13]) of the same compound?
A: Its NOAEL is 9.1 mg/kg/day.

Q: And the LEL (rat [5]; [14])?
A: The LEL was 1.8 mg/kg/day.

Q: What about the NEL (rat [5]; [14]) of the same compound?
A: Its NEL is under 1.8 mg/kg/day.

Q: And the LOAEL (mouse; [15])?
A: Its LOAEL is 750 mg/kg/day.

Q: And the NEL (mouse; [15])?
A: Its NEL is 7.5 mg/kg/day.

Q: And the NOAEL (mouse; [15])?
A: Its NOAEL is 75 mg/kg/day.

Q: What about the LEL (mouse; systemic / in life observation / body weight / body weight gain + systemic / organ weight / kidney / nos + systemic / in life observation / …) of the same compound?
A: Its LEL is 75 mg/kg/day.

Q: What about the LEL (rat [6]; systemic / clinical chemistry / protein / protein) of the same compound?
A: The LEL was 63 mg/kg/day.

Q: And the LOAEL (rat [6]; systemic / in life observation / body weight / body weight gain)?
A: The LOAEL was 681 mg/kg/day.

Q: And the NEL (rat [6]; [16])?
A: The NEL was 16.8 mg/kg/day.

Q: And the NOAEL (rat [6]; [16])?
A: Its NOAEL is 63 mg/kg/day.
